1 molecule from ChEMBL document CHEMBL1781926, “Synthesis of 1-naphtylpiperazine derivatives as serotoninergic ligands and their evaluation as antiproliferative agents” (Eur J Med Chem, 2011) can be followed below.

SMILES strings stand for the structures. Activity calls are given as the source filed them. No cut-off for these calls is given here.

For assay [1], the system named is PC-3. Description: Induction of apoptosis in human PC3 cells at 2 uM after 24 hrs using propidium iodide staining by flow cytometry (reference value: 1.27 %). Format: functional.
Assay [2] deals with PC-3. Description: Cell cycle arrest in human PC3 cells assessed as accumulation at G1 phase at 2 uM after 24 hrs using propidium iodide staining by flow cytometry (reference value: 46.97 %). Type of assay: functional. On the technique in general: A flow cytometer gives signals particle by particle.
In assay [3] the test system is PC-3. Put plainly: Cell cycle arrest in human PC3 cells assessed as accumulation at G1 phase at 2 uM after 72 hrs using propidium iodide staining by flow cytometry (reference value: 42.19 %). Type of assay: functional.
Assay [4] deals with RAC-alpha serine/threonine-protein kinase (Homo sapiens) (UniProt P31749). Put plainly: Inhibition of serotonin-induced AKT phosphorylation in human PC3 cells at 2 uM after 48 hrs by Western blotting. Format: cell-based. The conditions noted are these: PC-3. (In western blotting, separated proteins are transferred to a membrane and probed.)
Assay [5] has as its system PC-3. Description: Inhibition of serotonin-induced MAPK phosphorylation in human PC3 cells at 2 uM after 48 hrs by Western blotting. Format: cell-based.
In assay [6] the test system is PC-3. Description: Induction of apoptosis in human PC3 cells at 2 uM after 48 hrs using propidium iodide staining by flow cytometry (reference value: 0.84 %). Format: functional.
Assay [7] has as its system PC-3. Put plainly: Cell cycle arrest in human PC3 cells assessed as accumulation at S phase at 2 uM after 48 hrs using propidium iodide staining by flow cytometry (reference value: 38.16 %). Type of assay: functional.
For assay [8], the system named is PC-3. Description: Cell cycle arrest in human PC3 cells assessed as accumulation at G1 phase at 2 uM after 48 hrs using propidium iodide staining by flow cytometry (reference value: 54.14 %). Type of assay: functional.
The test system of assay [9] is PC-3. Description: Cell cycle arrest in human PC3 cells assessed as accumulation at G2 phase at 2 uM after 24 hrs using propidium iodide staining by flow cytometry (reference value: 18.19 %). Type of assay: functional.
The subject of assay [10] is PC-3. Description: Cell cycle arrest in human PC3 cells assessed as accumulation at G2 phase at 2 uM after 48 hrs using propidium iodide staining by flow cytometry (reference value: 13.36 %). Type of assay: functional.
Assay [11] relates to PC-3. Description: Cell cycle arrest in human PC3 cells assessed as accumulation at G2 phase at 2 uM after 72 hrs using propidium iodide staining by flow cytometry (reference value: 20.18 %). Type of assay: functional.
Assay [12] relates to PC-3. Put plainly: Induction of apoptosis human PC3 cells assessed as externalization of phosphatidylserine on the outer layer of plasma membrane at 1 uM after 24 to 48 hrs using Annexin-V-FITC staining by flow cytometry. Format: functional, cell-based.
Assay [13] has as its system PC-3. Put plainly: Cell cycle arrest in human PC3 cells assessed as accumulation at S phase at 2 uM after 24 hrs using propidium iodide staining by flow cytometry (reference value: 34.84 %). Type of assay: functional.
Assay [14] relates to PC-3. Description: Induction of apoptosis in human PC3 cells at 2 uM after 72 hrs using propidium iodide staining by flow cytometry (reference value: 1.79 %). Type of assay: functional.
Assay [15] concerns PC-3. Description: Cell cycle arrest in human PC3 cells assessed as accumulation at S phase at 2 uM after 72 hrs using propidium iodide staining by flow cytometry (reference value: 37.73 %). Type of assay: functional.

Chain of RAC-alpha serine/threonine-protein kinase (Homo sapiens) (P31749 whole entry): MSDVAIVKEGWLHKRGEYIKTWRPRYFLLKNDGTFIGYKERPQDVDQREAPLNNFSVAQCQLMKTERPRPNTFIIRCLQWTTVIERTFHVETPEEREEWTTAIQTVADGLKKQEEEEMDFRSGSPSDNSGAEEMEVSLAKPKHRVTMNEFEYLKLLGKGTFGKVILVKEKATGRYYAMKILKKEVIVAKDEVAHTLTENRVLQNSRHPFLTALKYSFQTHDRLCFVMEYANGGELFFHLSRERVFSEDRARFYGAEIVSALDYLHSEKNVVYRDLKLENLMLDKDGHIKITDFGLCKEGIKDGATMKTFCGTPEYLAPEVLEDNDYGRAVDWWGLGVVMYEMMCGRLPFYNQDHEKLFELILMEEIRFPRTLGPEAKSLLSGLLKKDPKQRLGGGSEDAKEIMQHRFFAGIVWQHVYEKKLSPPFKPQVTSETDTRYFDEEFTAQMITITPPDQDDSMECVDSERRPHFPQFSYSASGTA

In the case of `CC[C@@]1(O)C(=O)OCc2c1cc1n(c2=O)Cc2cc3c(CN(C)C)c(O)ccc3nc2-1` [TOPOTECAN], the Activity in the assay on PC-3 [1] was determined as 5.43%; in the assay on PC-3 [2] it was 37.23%; in the assay on PC-3 [3] it was 0%; in the assay with PC-3 [6], 16.32%; with PC-3 [7], 61.76%; in the assay on PC-3 [8] it was 19.17%. Also, the Activity was found to be 28.86% in the assay with PC-3 [9]; 19.07% with PC-3 [10]; 36.31% in the assay on PC-3 [11]; 33.91% in the assay on PC-3 [13]; 8.14% in the assay with PC-3 [14]; 63.69% in the assay with PC-3 [15]. The inhibition entry in assay [4] was “Active”. For the same molecule, the inhibition entry in the assay with PC-3 [5] is “inactive”. The result in the assay on PC-3 [12] was Active.
